According to paper PMC6825286 (Proceedings of the National Academy of Sciences of the …, 2019):

Target: T1, SghR (Agrobacterium tumefaciens, UniProt A0A2I4PGE9)
T1 sequence (A0A2I4PGE9 1-350): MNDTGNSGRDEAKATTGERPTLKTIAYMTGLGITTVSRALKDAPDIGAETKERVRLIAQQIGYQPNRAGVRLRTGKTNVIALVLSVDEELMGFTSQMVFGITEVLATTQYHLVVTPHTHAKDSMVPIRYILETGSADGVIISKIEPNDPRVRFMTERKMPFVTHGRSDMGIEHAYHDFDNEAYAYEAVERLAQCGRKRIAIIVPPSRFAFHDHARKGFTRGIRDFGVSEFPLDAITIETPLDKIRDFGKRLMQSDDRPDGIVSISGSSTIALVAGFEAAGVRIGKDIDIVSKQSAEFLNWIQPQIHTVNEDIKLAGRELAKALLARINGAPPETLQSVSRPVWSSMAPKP
Test: EMSA, dissociation of SghR from biotin-labelled sghA promoter
Format: binding
Conditions: sucrose 50 and 500 µM; inducer that releases the repressor from DNA

## OC[C@H]1O[C@@](CO)(O[C@H]2O[C@H](CO)[C@@H](O)[C@H](O)[C@H]2O)[C@@H](O)[C@@H]1O [sucrose]
  EMSA, dissociation of SghR from biotin-labelled sghA promoter: gel shift analysis demonstrated that sucrose dissociated repressor SghR from the sghA promoter
